These results are taken from patent US8039481B2, “Tetrahydrofuran derivatives for use as inhibitors of matrix metalloproteinases” (Sanofi-Aventis, priority 2005, dated 2011).

Holding throughout (type): biochemical
The target in assay [1] is T1, catalytic domain of human collagenase-1 (MMP-1) (Homo sapiens, UniProt P03956).
T1 construct: Determination of the Enzymatic Activity of the Catalytic Domain of Human Collagenase-1 (MMP-1); purchased Biocol, Potsdam MMP1
T1 sequence (P03956 100-269 limits assumed): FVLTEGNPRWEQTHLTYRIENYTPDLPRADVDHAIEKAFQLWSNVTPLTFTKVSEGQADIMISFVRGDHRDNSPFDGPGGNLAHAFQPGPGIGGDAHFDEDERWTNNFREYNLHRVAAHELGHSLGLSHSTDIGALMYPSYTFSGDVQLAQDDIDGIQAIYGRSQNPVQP
In words: Enzymatic activity of the catalytic domain of human collagenase-1 (MMP-1), fluorogenic substrate. The procedure: Determination of the Enzymatic Activity of the Catalytic Domain of Human Collagenase-1 (MMP-1)
Activation of the proenzyme: 2 parts by volume of proenzyme are incubated with 1 part by volume of APMA solution at 37° C. for 1 hour. The APMA solution is prepared from a 10 mmol/l p-aminophenylmercuric acetate solution in 0.1 mmol/l NaOH by dilution with 3 parts by volume of tris/HCl buffer pH7.5 (see below). The pH is adjusted to between 7.0 and 7.5 by adding 1 mmol/l HCl. After activation of the enzyme, it is diluted with the tris/HCl buffer to a concentration of 2.5 μg/ml.
The enzymic activity is measured by incubating 10 μl of enzyme solution with 10 μl of a 3% strength (v/v) buffered dimethyl sulfoxide solution (reaction 1) for 15 minutes. The enzyme inhibitor activity is measured by incubating 10 μl of enzyme solution with 10 μl of a 3% strength (v/v) buffered dimethyl sulfoxide solution which contains the enzyme inhibitor (reaction 2).
The enzymic reaction both in the case of reaction 1 and in the case of reaction 2 is followed after addition of 10 μl of a 3% strength (v/v) aqueous dimethyl sulfoxide solution which contains 0.3 mmol/l of the substrate by fluorescence spectroscopy (328 nm (extinction)/393 nm (emission)), and the enzymic activity is presented as increase in extinction per minute.
The effect of the inhibitor is calculated as percentage inhibition by the following formula: % inhibition=100−[(increase in extinction/minute in reaction 2)/(increase in extinction/minute in reaction 1)×100].
The IC50, i.e. the inhibitor concentration necessary for 50% inhibition of the enzymic activity, is determined graphically by plotting the percentage inhibitions at various inhibitor concentrations.
The buffer solution contains 0.05% Brij (Sigma, Deisenhofen, Germany) and 0.1 mol/l tris/HCl, 0.1 mol/l NaCl, 0.01 mol/l CaCl2 (pH=7.5). The enzyme solution contains 2.5 μg/ml of the enzyme domain.
The substrate solution contains 0.3 mmol/l of the fluorogenic substrate (7-methoxycoumarin-4-yl)acetyl-Pro-Leu-Gly-Leu-3-(2′,4′-dinitrophenyl)-L-2,3-diaminopropionyl-Ala-Arg-NH2 (Bachem, Heidelberg, Germany).

For assay [2], the target named is T2, catalytic domain of human stromelysin (MMP-3) (Homo sapiens, UniProt P08254).
T2 construct: Preparation and determination of the enzymatic activity of the catalytic domain of human stromelysin (MMP-3); made in house
Briefly: Enzymatic activity of the catalytic domain of human stromelysin (MMP-3), fluorogenic substrate. Here is the method: Preparation and determination of the enzymatic activity of the catalytic domain of human stromelysin (MMP-3) and of neutrophil collagenase (MMP-8). The two enzymes stromelysin (MMP-3) and neutrophil collagenase (MMP-8) were prepared by the method of Ye et al. (Biochemistry; 31 (1992) pages 11 231-11 235). The enzymic activity or the effect of the enzyme inhibitor was measured by incubating 10 μl of enzyme solution with 10 μl of a 3% strength (v/v) buffered dimethyl sulfoxide solution which contained the enzyme inhibitor where appropriate, for 15 minutes. After addition of 10 μl of a 3% strength (v/v) aqueous dimethyl sulfoxide solution which contained 1 mmol/l of the substrate, the enzymic reaction was followed by fluorescence spectroscopy (328 nm (ex)/393 nm(em)).
The enzymic activity is presented as increase in extinction/minute. The IC50 values listed in Table 2 were determined as the inhibitor concentrations leading in each case to 50% inhibition of the enzyme.
The buffer solution contained 0.05% Brij (Sigma, Deisenhofen, Germany) and 0.1 mol/l Tris/HCl, 0.1 mol/l NaCl, 0.01 mol/l CaCl2 and 0.1 mol/l piperazine-N,N′-bis[2-ethanesulfonic acid] (pH=7.5).
The MMP-3 enzyme solution contained 2.3 μg/ml and the MMP-8 enzyme solution 0.6 μg/ml of one of the enzyme domains prepared by the method of Ye et al. The substrate solution contained 1 mmol/l of the fluorogenic substrate (7-methoxycoumarin-4-yl)acetyl-Pro-Leu-Gly-Leu-3-(2′,4′-dinitrophenyl)-L-2,3-diaminopropionyl-Ala-Arg-NH2 (Bachem, Heidelberg, Germany).

Assay [3] concerns the target catalytic domain of human gelatinase-A (MMP-9) (Homo sapiens, UniProt P14780). Briefly: Enzymatic activity of the catalytic domain of human gelatinase-A (MMP-9), fluorogenic substrate. Here is the method: Determination of the Enzymatic Activity of the Catalytic Domain of Human Gelatinase-A (MMP-9)
Activation of the proenzyme:
2 parts by volume of proenzyme were incubated with 1 part by volume of APMA solution at 37° C. for 4 hours. The APMA solution was prepared from a 10 mmol/l p-aminophenylmercuric acetate solution in 0.1 mmol/l NaOH by dilution with 3 parts by volume of Tris/HCl buffer pH 7.5 (see below). The pH was adjusted to between 7.0 and 7.5 by adding 1 mmol/l HCl. After activation of the enzyme it was diluted with the Tris/HCl buffer to a concentration of 4.2 mU/ml.
The enzymic activity was measured by incubating 10 μl of enzyme solution with 10 μl of a 3% strength (v/v) buffered dimethyl sulfoxide solution (reaction 1) for 15 minutes. The enzyme inhibitor activity was measured by incubating 10 μl of enzyme solution with 10 μl of a 3% strength (v/v) buffered dimethyl sulfoxide solution which contained the enzyme inhibitor (reaction 2).
The enzymic reaction both in the case of reaction 1 and in the case of reaction 2 was followed after addition of 10 μl of a 3% strength (v/v) aqueous dimethyl sulfoxide solution which contained 0.15 mmol/l of the substrate by fluorescence spectroscopy (328 nm (extinction)/393 nm (emission)).
The enzymic activity has been presented as increase in extinction/minute.
The effect of the inhibitor was calculated as percentage inhibition by the following formula: % inhibition=100−[(increase in extinction/minute in reaction 2)/(increase in extinction/minute in reaction 1)×100].
The IC50, which is the concentration of inhibitor which is necessary for 50% inhibition of the enzymic activity, was determined graphically by plotting the percentage inhibitions at various inhibitor concentrations.
The buffer solution contained 0.05% Brij (Sigma, Deisenhofen, Germany) and 0.1 mol/l Tris/HCl, 0.1 mol/l NaCl, 0.01 mol/l CaCl2 (pH=7.5). The enzyme solution contained 4.2 mU/ml of the enzyme domain. The substrate solution contained 0.15 mmol/l of the fluorogenic substrate (7-methoxycoumarin-4-yl)acetyl-Pro-Leu-Gly-Leu-3-(2′,4′-dinitrophenyl)-L-2,3-diaminopropionyl-Ala-Arg-NH2 (Bachem, Heidelberg, Germany).

T2 sequence (P08254 100-272 limits assumed): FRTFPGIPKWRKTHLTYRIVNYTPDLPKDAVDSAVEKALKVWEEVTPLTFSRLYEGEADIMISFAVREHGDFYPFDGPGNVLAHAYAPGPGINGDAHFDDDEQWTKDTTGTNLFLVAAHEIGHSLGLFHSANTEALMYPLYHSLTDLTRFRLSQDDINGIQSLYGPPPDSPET
catalytic domain of human gelatinase-A (MMP-9), sequence (P14780 107-444 limits assumed): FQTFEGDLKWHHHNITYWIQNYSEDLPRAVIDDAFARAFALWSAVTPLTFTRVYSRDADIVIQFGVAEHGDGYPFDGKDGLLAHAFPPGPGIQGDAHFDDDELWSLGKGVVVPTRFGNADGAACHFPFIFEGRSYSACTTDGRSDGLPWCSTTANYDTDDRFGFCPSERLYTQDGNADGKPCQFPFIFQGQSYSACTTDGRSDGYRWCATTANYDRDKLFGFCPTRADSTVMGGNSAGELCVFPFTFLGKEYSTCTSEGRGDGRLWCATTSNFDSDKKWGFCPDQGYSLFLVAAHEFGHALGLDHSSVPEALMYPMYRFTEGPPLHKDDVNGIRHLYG

What is called IC50 is the concentration that inhibits the measured activity by half. High values mean lower potency, low ones higher potency. `O=C(O)C1C2CCOC2CCN1S(=O)(=O)c1ccc(-c2ccc(Cl)cc2)cc1` (stereo not drawn) [Example 6, 5-(4′-chlorobiphenyl-4-sulfonyl)octahydrofuro[3,2-c]pyridine-4-carboxylic acid]: the figures for the 50% inhibitory concentration (IC50) in assay [1], in assay [2] and in assay [3] were over 10000 nM, 3500 nM and 2200 nM, respectively.
For the molecule `O=C(NO)C1C2CCOC2CCN1S(=O)(=O)c1ccc(-c2ccc(Cl)cc2)cc1` (stereo not drawn) [Example 7, 5-(4′-chlorobiphenyl-4-sulfonyl)octahydrofuro[3,2-c]pyridine-4-(N-hydroxy)-carboxamide], the results for the concentration for half-maximal inhibition (IC50) in assay [1], in assay [2] and in assay [3] were 29 nM, 29 nM and 2.4 nM, respectively.
Regarding `O=C(NO)[C@H]1[C@H]2CCO[C@H]2CCN1S(=O)(=O)c1ccc(-c2ccc(Cl)cc2)cc1` [Example 8], the IC50 in assay [1] came out at 14 nM; in assay [2], 13 nM; in assay [3], 1.5 nM.
As for `O=C(NO)[C@@H]1[C@@H]2CCO[C@@H]2CCN1S(=O)(=O)c1ccc(-c2ccc(Cl)cc2)cc1` [Example 9], the IC50 in assay [1] came out at 4100 nM; in assay [2] it was 1100 nM; in assay [3], 120 nM.
For the molecule `O=C(O)C1C2CCOC2CCN1S(=O)(=O)c1ccc(Oc2ccc(F)cc2)cc1` (stereo not drawn) [Example 10, 5-[4-(4-fluorophenoxy)benzenesulfonyl]octahydrofuro[3,2-c]pyridine-4-carboxylic acid], the IC50 is over 10000 nM in assay [1], over 10000 nM in assay [2] and 2500 nM in assay [3].
For the molecule `O=C(NO)C1C2CCOC2CCN1S(=O)(=O)c1ccc(Oc2ccc(F)cc2)cc1` (stereo not drawn) [Example 11, 5-[4-(4-fluorophenoxy)benzenesulfonyl]octahydrofuro[3,2-c]pyridine-4-(N-hydroxy)-carboxamide], the IC50 in assay [1] stood at 39 nM; in assay [2] it was 34 nM; in assay [3] it was 3 nM.
Turning to `O=C(NO)[C@H]1[C@H]2CCO[C@H]2CCN1S(=O)(=O)c1ccc(Oc2ccc(F)cc2)cc1` [Example 12], the IC50 in assay [1] came to 10 nM; in assay [2], 14 nM; in assay [3], 1.3 nM.
In the case of `O=C(NO)[C@@H]1[C@@H]2CCO[C@@H]2CCN1S(=O)(=O)c1ccc(Oc2ccc(F)cc2)cc1` [Example 13], the results for the IC50 in assay [1], in assay [2] and in assay [3] were 1400 nM, 1500 nM and 150 nM, respectively.
Regarding `O=C(NO)C1C2CCOC2CCN1S(=O)(=O)c1ccc(Oc2ccc(Cl)cc2)cc1` (stereo not drawn) [Example 18, 5-[4-(4-chlorophenoxy)benzenesulfonyl]octahydrofuro[3,2-c]pyridine-4-(N-hydroxy)-carboxamide], the IC50 in assay [1] was found to be 43 nM; in assay [2], 27 nM; in assay [3] it was 2 nM.
With `N#Cc1ccc(Oc2ccc(S(=O)(=O)N3CC[C@@H]4OCC[C@@H]4[C@@H]3C(=O)NO)cc2)cc1` [Example 21], the IC50 amounted to 59 nM in assay [1], 17 nM in assay [2] and 8 nM in assay [3].
Regarding `CS(=O)(=O)c1ccc(Oc2ccc(S(=O)(=O)N3CC[C@@H]4OCC[C@@H]4[C@@H]3C(=O)NO)cc2)cc1` [Example 23], the IC50 in assay [1] turned out to be 640 nM; in assay [2], 15 nM; in assay [3], 5 nM.
